Data from patent US12116388B2, “Amylin receptor agonists” (Novo Nordisk A/S, priority 2022, dated 2024).
Starred links: 1 amine or outer side, 2 acyl side, 3 side chain; linkers in the order of their positions; H or OH if unused. Residues, ends and D or L forms follow the SMILES beside them. *: point of attachment. C18 diacid = O=C(O)CCCCCCCCCCCCCCCCC(=O)*; C16 diacid = O=C(O)CCCCCCCCCCCCCCC(=O)*; γGlu = O=C(O)[C@H](CCC(=O)[*:2])N[*:1]

Key:
[1] = molecular target: T1, human calcitonin receptor (hCTR) (Homo sapiens, UniProt P30988); assay: Human calcitonin receptor (hCTR) in vitro potency assay, CRE-luciferase reporter in BHK cells; assay type: cell-based; conditions: BHK hCTR/CRE-Luc cells, 3 hours incubation, assay buffer with 1% ovalbumin; read-out: hCalcR potency, EC50
T1 construct: host or cells: BHK (Baby Hamster Kidney), Hollex-1 cell line
T1 sequence (P30988 25-474): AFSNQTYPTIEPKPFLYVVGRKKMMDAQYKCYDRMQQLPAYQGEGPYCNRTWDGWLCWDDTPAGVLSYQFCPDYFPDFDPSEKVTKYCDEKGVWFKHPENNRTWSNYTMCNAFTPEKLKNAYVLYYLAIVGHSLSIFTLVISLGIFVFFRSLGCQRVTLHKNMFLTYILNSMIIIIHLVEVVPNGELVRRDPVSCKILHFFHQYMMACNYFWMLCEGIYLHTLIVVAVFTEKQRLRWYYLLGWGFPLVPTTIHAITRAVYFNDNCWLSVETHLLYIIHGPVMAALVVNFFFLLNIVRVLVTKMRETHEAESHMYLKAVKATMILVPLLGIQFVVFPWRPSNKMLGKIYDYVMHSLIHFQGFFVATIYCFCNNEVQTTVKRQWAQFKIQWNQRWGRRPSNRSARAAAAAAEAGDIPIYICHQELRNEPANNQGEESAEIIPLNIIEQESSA
Summary of the method: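 Luciferase signal from a CRE reporter served as the cAMP read-out after 3 h, 37 °C exposure to compound. Cells were stably transfected BHK expressing hCTR, and the buffer was phenol-red-free DMEM with 10 mM HEPES and 1% ovalbumin. Compounds were tested as 7-point, 7-fold dilutions, often from about 10 nM.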

[2] = molecular target: T2, human amylin receptor (hAMYR3) (Homo sapiens, UniProt O60896+P30988); assay: Human amylin receptor (hAMYR3) in vitro potency assay, CRE-luciferase reporter in BHK cells; assay type: cell-based; conditions: BHK hAMYR3/CRE-Luc cells, 3 hours incubation, assay buffer with 1% ovalbumin
T2 construct: host or cells: BHK (Baby Hamster Kidney), Hollex-1 cell line further transfected with RAMP3
Summary of the method: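 Luminescence from a CRE-driven luciferase reporter reflects cAMP-mediated receptor activation. Peptides were serially diluted (7 concentrations, 7-fold steps, typically starting near 10 nM) in buffer with 1% ovalbumin and applied for 3 h at 37 °C to BHK cells co-expressing calcitonin receptor (a) and RAMP3.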

T2 sequence (O60896 24-148, one chain of several): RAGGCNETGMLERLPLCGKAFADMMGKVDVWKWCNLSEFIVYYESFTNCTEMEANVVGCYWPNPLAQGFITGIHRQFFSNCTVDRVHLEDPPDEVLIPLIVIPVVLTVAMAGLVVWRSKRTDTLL

Row | Compound | EC50 [1] | EC50 [2]
1 | CC[C@H](C)[C@H](NC(=O)[C@@H]1CCCN1C(=O)CNC(=O)[C@H](Cc1ccccc1)NC(=O)[C@H](CC(N)=O)NC(=O)[C@H](CC(N)=O)NC(=O)[C@H](CO)NC(=O)[C@H](CO)NC(=O)[C@H](Cc1c[nH]cn1)NC(=O)[C@H](CCCNC(=N)N)NC(=O)[C@H](CC(C)C)NC(=O)[C@H](Cc1ccccc1)NC(=O)[C@H](CCC(=O)O)NC(=O)[C@H](C)NC(=O)[C@H](CC(C)C)NC(=O)[C@H](CCCNC(=N)N)NC(=O)[C@H](CCC(N)=O)NC(=O)[C@@H](NC(=O)[C@H](C)NC(=O)[C@@H]1CSSC[C@H](NC(=O)[C@H](CCCCN)NC(=O)CC[C@H](NC(=O)CCCCCCCCCCCCCCCCCCC(=O)O)C(=O)O)C(=O)N[C@@H](CC(N)=O)C(=O)N[C@@H]([C@@H](C)O)C(=O)N[C@@H](C)C(=O)N[C@@H]([C@@H](C)O)C(=O)N1)[C@@H](C)O)C(=O)N[C@@H](CC(C)C)C(=O)N1CCC[C@H]1C(=O)N1CCC[C@H]1C(=O)N[C@H](C(=O)N[C@@H](CC(N)=O)C(=O)N[C@H](C(=O)NCC(=O)N[C@@H](CO)C(=O)N[C@@H](CC(N)=O)C(=O)N[C@H](C(=O)N1CCC[C@H]1C(N)=O)[C@@H](C)O)C(C)C)[C@@H](C)O [cagrilintide, reference compound] | 2.53 pM | 1.58 pM
2 | CC[C@H](C)[C@H](NC(=O)[C@@H]1CCCN1C(=O)CNC(=O)[C@H](Cc1ccccc1)NC(=O)[C@H](Cc1c[nH]cn1)NC(=O)[C@H](Cc1c[nH]cn1)NC(=O)[C@H](CC(C)C)NC(=O)[C@H](Cc1ccccc1)NC(=O)[C@H](CCC(=O)O)NC(=O)[C@H](C)NC(=O)[C@H](CC(C)C)NC(=O)[C@H](CCCNC(=N)N)NC(=O)[C@H](CCC(N)=O)NC(=O)[C@@H](NC(=O)[C@H](CCC(N)=O)NC(=O)[C@H](C)NC(=O)[C@@H](NC(=O)[C@H](CO)NC(=O)[C@H](CC(C)C)NC(=O)[C@H](Cc1c[nH]cn1)NC(=O)[C@H](CO)NC(=O)[C@H](C)NC(=O)CC[C@H](NC(=O)CC[C@H](NC(=O)CCCCCCCCCCCCCCCCC(=O)O)C(=O)O)C(=O)O)[C@@H](C)O)[C@@H](C)O)C(=O)N[C@@H](CC(C)C)C(=O)N1CCC[C@H]1C(=O)N1CCC[C@H]1C(=O)N[C@H](C(=O)N[C@@H](CC(=O)O)C(=O)N[C@H](C(=O)NCC(=O)N[C@@H](CO)C(=O)N[C@@H](CCC(=O)O)C(=O)N[C@H](C(=O)N[C@@H](Cc1ccc(O)cc1)C(N)=O)[C@@H](C)O)C(C)C)[C@@H](C)O [Compound 32, N^1-[(4S)-4-carboxy-4-[[(4S)-4-carboxy-4-(17-carboxyheptadecanoylamino)butanoyl]amino]butanoyl]-[Ala1,Ser2,His3,Leu4,Ser5,Ala7,Gln8,Glu14,His17,Pro25,Pro28,Pro29,Asp31,Glu35],des-(19-22)-human amylin] ({C18 diacid-γGlu-γGlu}-ASHLSTAQTQRLAEFLHHFGPILPPTDVGSETY-NH2) | 15.7 pM | 5.71 pM

Now those with a lower EC50 [1], led by results:

Row | EC50 [1] | EC50 [2] | Compound
3 | 1.74 pM | 1.69 pM | CC[C@H](C)[C@H](NC(=O)[C@H](C)NC(=O)CNC(=O)[C@H](Cc1ccccc1)NC(=O)[C@@H]1CCCN1C(=O)[C@H](CC(=O)O)NC(=O)[C@H](CO)NC(=O)[C@H](CO)NC(=O)[C@H](Cc1c[nH]cn1)NC(=O)[C@H](Cc1c[nH]cn1)NC(=O)[C@H](CC(C)C)NC(=O)[C@H](Cc1ccccc1)NC(=O)[C@H](CCC(=O)O)NC(=O)[C@H](C)NC(=O)[C@H](CC(C)C)NC(=O)[C@H](CCCNC(=N)N)NC(=O)[C@H](CCC(N)=O)NC(=O)[C@@H](NC(=O)[C@H](CCC(N)=O)NC(=O)[C@H](CC(C)C)NC(=O)[C@@H](NC(=O)[C@H](CO)NC(=O)[C@H](CC(C)C)NC(=O)[C@H](Cc1c[nH]cn1)NC(=O)[C@H](CO)NC(=O)[C@H](C)NC(=O)CC[C@H](NC(=O)CCCCCCCCCCCCCCCCC(=O)O)C(=O)O)[C@@H](C)O)[C@@H](C)O)C(=O)N1CCC[C@H]1C(=O)N[C@@H](CO)C(=O)N[C@@H](CO)C(=O)N[C@H](C(=O)N[C@@H](CC(=O)O)C(=O)N[C@H](C(=O)NCC(=O)N1CCC[C@H]1C(=O)N[C@@H](CC(=O)O)C(=O)N[C@H](C(=O)N1CCC[C@H]1C(N)=O)[C@@H](C)O)C(C)C)[C@@H](C)O [Compound 33, N^1-[(4S)-4-carboxy-4-(17-carboxyheptadecanoylamino)butanoyl]-[Ala1,Ser2,His3,Leu4,Ser5,Leu7,Gln8,Glu14,His17,Asp21,Pro22,Pro27,Asp31,Pro34,Asp35,Pro37]-human amylin] ({C18 diacid-γGlu}-ASHLSTLQTQRLAEFLHHSSDPFGAIPSSTDVGPDTP-NH2)
4 | 1.72 pM | 2.06 pM | CC[C@H](C)[C@H](NC(=O)[C@@H]1CCCN1C(=O)CNC(=O)[C@H](Cc1ccccc1)NC(=O)[C@H](Cc1c[nH]cn1)NC(=O)[C@H](Cc1c[nH]cn1)NC(=O)[C@H](CC(C)C)NC(=O)[C@H](Cc1ccccc1)NC(=O)[C@H](CCC(=O)O)NC(=O)[C@H](C)NC(=O)[C@H](CC(C)C)NC(=O)[C@H](CCCNC(=N)N)NC(=O)[C@H](CCC(N)=O)NC(=O)[C@@H](NC(=O)[C@H](CCC(N)=O)NC(=O)[C@H](C)NC(=O)[C@@H](NC(=O)[C@H](CO)NC(=O)[C@H](CC(C)C)NC(=O)[C@H](Cc1c[nH]cn1)NC(=O)[C@H](CO)NC(=O)[C@H](C)NC(=O)CC[C@H](NC(=O)CCCCCCCCCCCCCCCCC(=O)O)C(=O)O)[C@@H](C)O)[C@@H](C)O)C(=O)N[C@@H](CC(C)C)C(=O)N1CCC[C@H]1C(=O)N1CCC[C@H]1C(=O)N[C@H](C(=O)N[C@@H](CC(=O)O)C(=O)N[C@H](C(=O)NCC(=O)N[C@@H](CO)C(=O)N[C@@H](CCC(=O)O)C(=O)N[C@H](C(=O)N1CCC[C@H]1C(N)=O)[C@@H](C)O)C(C)C)[C@@H](C)O [Compound 28, N^1-[(4S)-4-carboxy-4-(17-carboxyheptadecanoylamino)butanoyl]-[Ala1,Ser2,His3,Leu4,Ser5,Ala7,Gln8,Glu14,His17,Pro25,Pro28,Pro29,Asp31,Glu35,Pro37],des-(19-22)-human amylin] ({C18 diacid-γGlu}-ASHLSTAQTQRLAEFLHHFGPILPPTDVGSETP-NH2)
5 | 1.5 pM | 1.62 pM | CC[C@H](C)[C@H](NC(=O)[C@@H]1CCCN1C(=O)CNC(=O)[C@H](Cc1ccccc1)NC(=O)[C@H](CC(N)=O)NC(=O)[C@H](CC(=O)O)NC(=O)[C@H](CO)NC(=O)[C@H](CO)NC(=O)[C@H](Cc1c[nH]cn1)NC(=O)[C@H](Cc1c[nH]cn1)NC(=O)[C@H](CC(C)C)NC(=O)[C@H](Cc1ccccc1)NC(=O)[C@H](CCC(=O)O)NC(=O)[C@H](C)NC(=O)[C@H](CC(C)C)NC(=O)[C@H](CCCNC(=N)N)NC(=O)[C@H](C)NC(=O)[C@@H](NC(=O)[C@H](CCC(N)=O)NC(=O)[C@H](C)NC(=O)[C@@H](NC(=O)[C@H](CO)NC(=O)[C@H](CC(C)C)NC(=O)[C@H](Cc1c[nH]cn1)NC(=O)[C@H](CO)NC(=O)[C@H](C)NC(=O)CC[C@H](NC(=O)CCCCCCCCCCCCCCC(=O)O)C(=O)O)[C@@H](C)O)[C@@H](C)O)C(=O)N[C@@H](CC(C)C)C(=O)N1CCC[C@H]1C(=O)N1CCC[C@H]1C(=O)N[C@H](C(=O)N[C@@H](CC(=O)O)C(=O)N[C@H](C(=O)NCC(=O)N[C@@H](CO)C(=O)N[C@@H](CC(N)=O)C(=O)N[C@H](C(=O)N1CCC[C@H]1C(N)=O)[C@@H](C)O)C(C)C)[C@@H](C)O [Compound 20, N^1-[(4S)-4-carboxy-4-(15-carboxypentadecanoylamino)butanoyl]-[Ala1,Ser2,His3,Leu4,Ser5,Ala7,Gln8,Ala10,Glu14,His17,Asp21,Pro25,Pro28,Pro29,Asp31,Pro37]-human amylin] ({C16 diacid-γGlu}-ASHLSTAQTARLAEFLHHSSDNFGPILPPTDVGSNTP-NH2)
